Source: patent US7572579B2, “Screening method for a ribonuclease H inhibitor of a reverse transcriptase” (priority 2004, dated 2009)
Like-named read-outs stand apart in the source and are kept apart here.

Key:
[1] = test system: virus proliferation; settings: reported in literature; cited from earlier work
[2] = target: T1, RNase H activity of wild type reverse transcriptase of HIV (Human immunodeficiency virus type 1 group M subtype B, UniProt P04585); settings: wild type RT, with preincubation
[3] = target: T2, RNase H activity of Y188L mutant enzyme of HIV (Human immunodeficiency virus type 1 group M subtype B, UniProt P04585, Y775L); settings: with preincubation
[4] = target: T1, RNase H activity of wild type reverse transcriptase of HIV; test: biochemical
[5] = target: polymerase activity of wild type reverse transcriptase of HIV (Human immunodeficiency virus type 1 group M subtype B, UniProt P04585); test: biochemical; settings: Polymerase IC50, wild type RT
[6] = target: T2, RNase H activity of Y188L mutant enzyme of HIV; test: biochemical
[7] = target: polymerase activity of Y188L mutant enzyme of HIV (Human immunodeficiency virus type 1 group M subtype B, UniProt P04585, Y775L); test: biochemical
[8] = with preincubation, with metal cofactors
[9] = with preincubation, without metal cofactors

| Structure (SMILES) | inhibition of virus proliferation in cell-based assay [1] | RNaseH IC50 ([2]; with metal cofactors) | RNaseH IC50 ([2]; without metal cofactors) | RNaseH IC50 ([3]; with metal cofactors) | RNaseH IC50 ([3]; without metal cofactors) | IC50 [4] [µM] | IC50 [5, 8] [µM] | IC50 [5, 9] [µM] | IC50 ([5]; without preincubation) [µM] | IC50 [6] [µM] | IC50 [7, 8] [µM] | IC50 [7, 9] [µM] | IC50 ([7]; without preincubation) [µM] |
| --- | --- | --- | --- | --- | --- | --- | --- | --- | --- | --- | --- | --- | --- |
| O=C(O)C(=O)CC(=O)c1ccc(NC(=O)c2ccccc2)s1 [Compound 1, 4-[5-(benzoylamino)thien-2-yl]-2,4-dioxobutanoic acid] | can not inhibit virus proliferation |  |  |  |  |  |  |  |  |  |  |  |  |
| Cc1ccc(C(=O)Nc2ccc(S(=O)(=O)O)c3cc(S(=O)(=O)O)cc(S(=O)(=O)O)c23)cc1NC(=O)c1cccc(NC(=O)Nc2cccc(C(=O)Nc3cc(C(=O)Nc4ccc(S(=O)(=O)O)c5cc(S(=O)(=O)O)cc(S(=O)(=O)O)c45)ccc3C)c2)c1 [suramin, Suramin sodium] |  | ≈POL | ≈POL | ≈POL | ≈POL | > 77.1 | 2.47 | 16.2 | > 77.1 | > 77.1 | 2.47 | 10 | > 77.1 |
